The test deals with T1, GPR103 Q125^3.32A (Homo sapiens, UniProt Q96P65, Q125A).
T1 construct: we used human full-length QRFPR-encoding plasmids; expressed in transfected cells; host or cells: HEK293 cells, pCAGGS vector
T1 sequence (Q96P65 1-431 Q125A): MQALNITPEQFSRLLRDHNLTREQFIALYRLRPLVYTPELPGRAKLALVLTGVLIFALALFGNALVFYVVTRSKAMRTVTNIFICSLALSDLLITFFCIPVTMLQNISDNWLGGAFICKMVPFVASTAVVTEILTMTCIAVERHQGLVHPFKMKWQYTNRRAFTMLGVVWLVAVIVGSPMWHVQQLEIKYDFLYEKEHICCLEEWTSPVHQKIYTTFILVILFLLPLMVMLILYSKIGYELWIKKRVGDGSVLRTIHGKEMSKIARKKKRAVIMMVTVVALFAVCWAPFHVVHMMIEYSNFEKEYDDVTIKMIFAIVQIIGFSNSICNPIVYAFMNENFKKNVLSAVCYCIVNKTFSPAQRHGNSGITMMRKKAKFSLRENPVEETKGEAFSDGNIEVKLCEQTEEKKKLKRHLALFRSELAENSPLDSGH
Nature of the test: TGFα shedding assay; Exp. level WT (1:50). Type of test: cell-based.

Like-named read-outs stand apart in the source and are kept apart here. No end group written: not given here.

Consider TSGPLGNLAEELNGYSRKKGGFSFRF-NH2 [QRFP26], for which the Emax was found to be 46.53 % WT (Exp. #1); 25.38 % WT (Exp. #2); 32.41 % WT (Exp. #3); 34.8% (mean, read-out: Emax); 35.7 ± 5.1% (n = 3, read-out: Emax). This substance gave a concentration giving a half-maximal response (EC50) (n = 3) of 282 nM.
